# Molecular target: T1, GLP-1R (UniProt P01275+P32301)
# T1 construct: endogenous in cells; host or cells: RINm5F cells stably expressing the RG-cAMP BRET sensor
# Test: cell-based
# Format: cell-based
# Set-up: Activity % of compound 1 (potentiation of GLP-1 induced cAMP production): concentration or dose not given beside the values
# Conditions: RINm5F cells
# Description: Next day, cells were washed twice with 0.1 ml phenol red-free MEM containing 5 mM HEPES, and incubated in the same medium for 1 h. The medium was replaced with 90 μL the same medium containing 1 mg/ml BSA and 5 μM DeepBlueC. The whole plate was immediately loaded onto a SpectraMax Paradigm Detection Platform equipped with a Dual-Color luminescence detection cartridge and SoftMax Pro 6.2.2 (Molecular Devices, Sunnyvale, Calif.) to obtain the background BRET signal based on the sequential integration of the luminescence detected at 370-450 and 500-530 nm over 60-150 s. Each well was then stimulated by adding 10 μl of 10× solutions of peptide and lipids and 1 mg/ml BSA in phenol red-free MEM containing 5 mM HEPES, and BRET signals were obtained immediately under identical settings. The BRET ratio is the ratio of light emitted between 90 and 300 s at 500-530 nm to that emitted at 370-450 nm. […] The dose-response curve, maximal response, and concentration of peptide needed to yield half-maximal response (EC50) were obtained by nonlinear regression to fit the data to the agonist versus response equation using Prism software 5.0 (GraphPad, San Diego). Unless specified, all cAMP response data are the means±S.E. from three independent experiments with triplicate assays.
# T1 sequence (P32301 22-463): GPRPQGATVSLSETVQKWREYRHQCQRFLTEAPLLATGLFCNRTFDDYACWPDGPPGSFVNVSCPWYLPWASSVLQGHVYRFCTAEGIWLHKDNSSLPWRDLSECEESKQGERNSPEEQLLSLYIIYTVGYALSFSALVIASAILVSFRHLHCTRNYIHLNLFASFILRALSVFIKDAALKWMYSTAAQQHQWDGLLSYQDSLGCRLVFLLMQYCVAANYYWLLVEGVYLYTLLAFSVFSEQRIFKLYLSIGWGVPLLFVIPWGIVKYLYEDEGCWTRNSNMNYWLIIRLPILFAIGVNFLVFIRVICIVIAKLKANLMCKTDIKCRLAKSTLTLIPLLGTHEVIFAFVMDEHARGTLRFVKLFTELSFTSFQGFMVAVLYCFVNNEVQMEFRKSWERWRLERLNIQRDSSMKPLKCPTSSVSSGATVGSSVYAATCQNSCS
# T1 sequence (P01275 98-127 limits assumed): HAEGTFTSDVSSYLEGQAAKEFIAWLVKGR
row,Compound,relative potency among the compounds of formula (I) tested in example 2
1,"CCCCC/C=C\C/C=C\CCCCCCCC(=O)NC1C(=O)OC(C)C1C (stereo not shown) [Compound 1, (9Z,12Z)-N-(4,5-Dimethyl-2-oxotetrahydrofuran-3-yl)octadeca-9,12-dienamide]",most potency

# Same assay, conditions: RINm5F cells; FIG. 1A to 1E
row,Compound,effect on GLP-1R signaling (GLP-1 induced cAMP production)
1,"CCCCC/C=C\C/C=C\CCCCCCCC(=O)NC1C(=O)OC(C)C1C (stereo not shown) [Compound 1, (9Z,12Z)-N-(4,5-Dimethyl-2-oxotetrahydrofuran-3-yl)octadeca-9,12-dienamide]",enhance the GLP-1R signaling
2,CCC=CCC=CCC=CCC=CCC=CCC=CCCC(=O)N[C@H]1C(=O)O[C@@H](C)[C@@H]1C [Compound 12],enhance the GLP-1R signaling

# Same assay, conditions: compound 1 increased from 0.8 μM to 26 μM; FIG. 2 panel A
row,Compound,shift of the GLP-1 dose-response curve (cAMP production) to the left [fold]
1,"CCCCC/C=C\C/C=C\CCCCCCCC(=O)NC1C(=O)OC(C)C1C (stereo not shown) [Compound 1, (9Z,12Z)-N-(4,5-Dimethyl-2-oxotetrahydrofuran-3-yl)octadeca-9,12-dienamide]",> 10

# Same assay, conditions: dose dependent and saturable; FIG. 2 panel B
row,Compound,EC50 [µM]
1,"CCCCC/C=C\C/C=C\CCCCCCCC(=O)NC1C(=O)OC(C)C1C (stereo not shown) [Compound 1, (9Z,12Z)-N-(4,5-Dimethyl-2-oxotetrahydrofuran-3-yl)octadeca-9,12-dienamide]",3.7

# Same assay, conditions: relative to compound 1 = 100
row,Compound,Activity % of compound 1 (potentiation of GLP-1 induced cAMP production) [%]
1,CCCCC/C=C/C/C=C/CCCCCCCC(=O)OCC(O)CO (stereo not shown) [1-monolinolein],80
2,C[C@@H]([C@H](C)O)[C@H](N)C(=O)O [4-hydroxyisoleucine],<10
3,"CCCCCC/C=C/C=C/CCCCCCCC(=O)O [9(E),11(E)-conjugated linoleic acid]",30
4,"CCCCCC/C=C/C=C\CCCCCCCC(=O)O [9(Z),11(E)-conjugated linoleic acid]",25
5,"CCCCC/C=C\C=C\CCCCCCCCC(=O)O [10(E),12(Z)-conjugated linoleic acid]",30
6,CCCCCC/C=C/CCCCCCCCCC(=O)O [11-trans-octadecenoic acid],10
7,"CCCCC/C=C\C/C=C\CCCCCCCC(=O)NC1C(=O)OC(C)C1C (stereo not shown) [Compound 1, (9Z,12Z)-N-(4,5-Dimethyl-2-oxotetrahydrofuran-3-yl)octadeca-9,12-dienamide]",100
8,CC/C=C\C/C=C\C/C=C\C/C=C\C/C=C\C/C=C\CCC(=O)O [Docosahexaenoic acid],60
9,CC/C=C\C/C=C\C/C=C\C/C=C\C/C=C\C/C=C\CCC(=O)NCCO [Docosahexaenoyl ethanolamide],20
10,CC/C=C/C/C=C/C/C=C/C/C=C/C/C=C/C/C=C/CCC(=O)NCC(=O)O [Docosahexaenoyl glycine],15
11,CC/C=C\C/C=C\C/C=C\C/C=C\C/C=C\C/C=C\CCC(=O)NCCc1c[nH]c2ccc(O)cc12 [Docosahexaenoyl serotonin],15
12,CC/C=C\C/C=C\C/C=C\C/C=C\C/C=C\CCCC(=O)O [Eicosapentaenoic acid],60
13,CC/C=C\C/C=C\C/C=C\C/C=C\C/C=C\CCCC(=O)NCCO [Eicosapentaenoyl ethanolamide],90
14,CC/C=C\C/C=C\C/C=C\C/C=C\C/C=C\CCCC(=O)NCCc1c[nH]c2ccc(O)cc12 [Eicosapentaenoyl serotonin],20
15,CCCCC/C=C\C/C=C\CCCCCCCC(=O)OCC [Ethyl linoleate],60
16,CCCCC/C=C/C/C=C/CCCCCCCC(=O)O [Linoelaidic acid],30
17,CCCCC/C=C\C/C=C\CCCCCCCC(=O)NCCO [Linoleoyl ethanolamide],90
18,CCCCC/C=C\C/C=C\CCCCCCCC(=O)NCC(=O)O [Linoleoyl glycine],80
19,"CCCCC/C=C\C/C=C\CCCCCCCC(=O)OC [Methyl cis,cis-9,12-octadecadienoate]",15
20,CCCCC/C=C/C/C=C/CCCCCCCC(=O)OC [Methyl linolelaidate],30
21,CCCCC/C=C\C/C=C\C/C=C\CCCCC(=O)OC [Methyl γ-linolenate],20
22,CC/C=C\C/C=C\C/C=C\CCCCCCCC(=O)N[C@@H](Cc1ccc(O)cc1)C(=O)O [N-(α-linolenoyl) tyrosine],70
23,CCCCCCCC/C=C\CCCCCCCC(=O)O [Oleic acid],35
24,CCCCC/C=C\C/C=C\CCCCCCCC(=O)OC [linoleic acid methyl ester],30
25,CC/C=C\C/C=C\C/C=C\CCCCCCCC(=O)OC [linolenic acid methyl ester],15
26,CC/C=C\C/C=C\C/C=C\CCCCCCCC(=O)O [α-linolenic acid],15
27,CCCCC/C=C\C/C=C\C/C=C\CCCCC(=O)OC [γ-linoleic acid methyl ester],25
28,Cis-octadecenoic acid,25

# Same assay, conditions: relative to compound 1 = 100; listed as eicosanpentaenoyl ethanolamide
row,Compound,Activity % of compound 1 (potentiation of GLP-1 induced cAMP production)
1,CC/C=C\C/C=C\C/C=C\C/C=C\C/C=C\CCCC(=O)NCCO [Eicosapentaenoyl ethanolamide],about 90%

# Same assay, conditions: relative to compound 1 = 100; listed as linoleoyl ethanolamide
row,Compound,Activity % of compound 1 (potentiation of GLP-1 induced cAMP production)
1,CCCCC/C=C\C/C=C\CCCCCCCC(=O)NCCO [Linoleoyl ethanolamide],about 90%

# Molecular target: T2, GLP-1R-V2R chimeric (Homo sapiens, UniProt P01275+P43220)
# T2 construct: the first 440 amino acids of the GLP-1R (Met-1 to Thr-440); vasopressin V2 receptor C-terminal tail, last 29 amino acids, Ala-343 to Ser-371 (AVPR2); expressed in transfected cells; host or cells: U2OS osteosarcoma cells stably expressing beta-arrestin2:GFP (Norak Biosciences), transfected with pcDNA3-GLP-1R-V2R
# T2 sequence (P43220 with tags, fused parts or gaps limits assumed): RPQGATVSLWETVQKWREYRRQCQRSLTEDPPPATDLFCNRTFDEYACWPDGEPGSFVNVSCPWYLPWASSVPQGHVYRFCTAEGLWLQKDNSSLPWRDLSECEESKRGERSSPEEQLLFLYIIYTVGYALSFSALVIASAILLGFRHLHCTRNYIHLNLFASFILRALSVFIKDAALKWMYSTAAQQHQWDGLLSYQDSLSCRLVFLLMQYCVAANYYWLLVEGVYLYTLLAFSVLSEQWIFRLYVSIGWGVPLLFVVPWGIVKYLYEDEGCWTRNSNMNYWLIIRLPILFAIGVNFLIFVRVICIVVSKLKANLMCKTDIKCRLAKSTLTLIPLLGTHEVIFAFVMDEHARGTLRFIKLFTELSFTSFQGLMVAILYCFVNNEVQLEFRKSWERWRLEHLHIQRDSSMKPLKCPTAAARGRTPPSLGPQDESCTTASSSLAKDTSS
# T2 sequence (P01275 98-127 limits assumed, stated change not applied): as the sequence (P01275 98-127 limits assumed) above
# Test: Receptor endocytosis assay in U2OS cells co-expressing GLP-1R-V2R and β-arrestin2:GFP
# Format: cell-based
# Conditions: not given
row,Compound,EC50 [µM]
1,"CCCCC/C=C\C/C=C\CCCCCCCC(=O)NC1C(=O)OC(C)C1C (stereo not shown) [Compound 1, (9Z,12Z)-N-(4,5-Dimethyl-2-oxotetrahydrofuran-3-yl)octadeca-9,12-dienamide]",0.87

# System: RINm5F cells
# Test: GLP-1-elicited insulin release from RINm5F cells
# Format: cell-based
# Conditions: 2 nM GLP-1 alone; FIG. 4
row,Compound,insulin release from RINm5F cells
1,GLP-1(7-36)-amide,stimulated a low level of insulin release

# Same assay, conditions: 7.7 μM compound added to 2 nM GLP-1; FIG. 4
row,Compound,effect on insulin release elicited by GLP-1
1,"CCCCC/C=C\C/C=C\CCCCCCCC(=O)NC1C(=O)OC(C)C1C (stereo not shown) [Compound 1, (9Z,12Z)-N-(4,5-Dimethyl-2-oxotetrahydrofuran-3-yl)octadeca-9,12-dienamide]",significantly enhanced

# Same assay, conditions: compound alone, without GLP-1; FIG. 4
row,Compound,insulin release by compound alone
1,"CCCCC/C=C\C/C=C\CCCCCCCC(=O)NC1C(=O)OC(C)C1C (stereo not shown) [Compound 1, (9Z,12Z)-N-(4,5-Dimethyl-2-oxotetrahydrofuran-3-yl)octadeca-9,12-dienamide]",did not trigger any insulin release

# System: H460 cells
# Test: Cell viability test (PrestoBlue) in H460 cells
# Format: cell-based
# Conditions: 72-h treatment, FIG. 5
# Description: Cytotoxicity of H460 cells to various compounds was assessed using PrestoBlue® reagent, which was modified by the reducing environment of the viable cell and turns from blue to red in color. In brief, 3,000 H460 cells were seeded with 0.1 ml of RPMI 1640 medium in each well of a 96-well plate and incubated at 37° C. for 24 h before compound treatment. After a 72-h compound treatment, PrestoBlue™ cell viability reagent (Invitrogen) was added to each well according to the manufacturer's protocol. The plates were further incubated in the dark at 37° C. in 5% CO2 for 10 min, and absorbance of all wells was read at both the 570- and 600-nm wavelengths using automatic enzyme-linked immunosorbent assay plate reader (Molecular Devices, Union City, Calif.). The raw data were normalized and corrected according to the manufacturer's protocol. All samples were tested in triplicate, and each test was repeated three times. Cell viability was calculated using the following formula: percent of 100×(average corrected values of compound treated cells)/(average corrected values of untreated cells).
row,Compound,IC50 [µM]
1,N.N.[Cl][Pt][Cl] [cisplatin],6.7

# Same assay, conditions: test concentration 0.78 to 100 μM, 72-h treatment, FIG. 5
row,Compound,cytotoxicity
1,CCCCCCCC/C=C\CCCCCCCC(=O)OC(CO)CO [2-oleoylglycerol],did not exhibit detectable cytotoxicity
2,"CCCCC/C=C\C/C=C\CCCCCCCC(=O)NC1C(=O)OC(C)C1C (stereo not shown) [Compound 1, (9Z,12Z)-N-(4,5-Dimethyl-2-oxotetrahydrofuran-3-yl)octadeca-9,12-dienamide]",did not exhibit detectable cytotoxicity
3,CCCCCCCC/C=C\CCCCCCCC(=O)NCCO [oleoylethanolamide],did not exhibit detectable cytotoxicity

# — US10392357B2, “Glucagon-like peptide 1 modulator and uses thereof” (Academia Sinica, priority 2015, dated 2019)
